Measured values: ChEMBL document CHEMBL3739380, “Discovery of benzothiazoles as antimycobacterial agents: Synthesis, structure-activity relationships and binding studies with Mycobacterium tuberculosis decaprenylphosphoryl-β-D-ribose 2'-oxidase” (Bioorg Med Chem, 2015)
≈ marks a conversion by molar mass, not a printed value.

Tests used:
Assay type in all cases: functional
[1] = test system: Mycobacterium tuberculosis; test: Antimycobacterial activity against INH-resistant Mycobacterium tuberculosis after 2 to 3 weeks by turbidity assay
[2] = test system: Mycobacterium tuberculosis; test: Antimycobacterial activity against rifampicin-resistant Mycobacterium tuberculosis after 2 to 3 weeks by turbidity assay
[3] = test system: Mycobacterium tuberculosis; test: Antimycobacterial activity against streptomycin-resistant Mycobacterium tuberculosis after 2 to 3 weeks by turbidity assay

Row | SMILES | MIC [1] [µg/mL] | MIC [2] [µg/mL] | MIC [3] [µg/mL]
1 | Cc1c(C(F)(F)F)cc2nc(C(=O)N3CCCCC3)sc2c1[N+](=O)[O-] | 0.25 (≈ 0.67 µM) | 0.5 (≈ 1.34 µM) | 0.25 (≈ 0.67 µM)
2 | O=C(NCc1ccccn1)c1sc2c([N+](=O)[O-])cc(C(F)(F)F)cc2[n+]1[O-] | 0.06 (≈ 0.151 µM) | 0.03 (≈ 0.0753 µM) | 0.06 (≈ 0.151 µM)
3 | COCCN1CCN(C(=O)c2nc3cc(C(F)(F)F)c(C)c([N+](=O)[O-])c3s2)CC1 | 1 (≈ 2.31 µM) | 1 (≈ 2.31 µM) | 1 (≈ 2.31 µM)
4 | O=C(NCc1ccccn1)c1nc2cc(C(F)(F)F)cc([N+](=O)[O-])c2s1 | 0.12 (≈ 0.314 µM) | 0.25 (≈ 0.654 µM) | 0.25 (≈ 0.654 µM)
